Data on 14 molecules can be found in ChEMBL document CHEMBL2034968, “Discovery of novel urea-based hepatitis C protease inhibitors with high potency against protease-inhibitor-resistant mutants” (J Med Chem, 2012).

For orientation: EC50 means the concentration giving half of the maximal effect. The low end stands for higher potency in that assay, the high end for lower potency in that assay. The IC50 is the point on the concentration scale where inhibition reaches its midpoint. A higher IC50 goes with lower potency.

The test system of assay [1] is Hepatitis C virus. The experiment in a line: Antiviral activity against Hepatitis C virus subtype 1b harboring protease A156S mutant by transient replicon assay. The format is functional, organism-based, Hepacivirus hominis. Conditions: genotype 1b.
Assay [2] deals with Hepatitis C virus. The experiment in a line: Antiviral activity against wild type Hepatitis C virus subtype 1b by transient replicon assay. The format is functional, organism-based, Hepacivirus hominis. As to conditions: genotype 1b.
The test system of assay [3] is Hepatitis C virus. The experiment in a line: Antiviral activity against Hepatitis C virus subtype 1b harboring protease D168A mutant by transient replicon assay. As to conditions: genotype 1b. The format is functional, organism-based, Hepacivirus hominis.
Assay [4] deals with Hepatitis C virus. As to the kind of experiment: Antiviral activity against Hepatitis C virus subtype 1a by stable replicon assay. The format is functional, organism-based, Hepacivirus hominis. For orientation: A replicon is a self-replicating genome or part of one, used to study replication in cells.
Assay [5] relates to Hepatitis C virus. The experiment in a line: Antiviral activity against Hepatitis C virus subtype 1b harboring protease A156V mutant by transient replicon assay. Type of assay: functional, organism-based, Hepacivirus hominis. Conditions: genotype 1b.
The subject of assay [6] is Hepatitis C virus. The experiment in a line: Antiviral activity against Hepatitis C virus subtype 1b harboring protease D168V mutant by transient replicon assay. Type of assay: functional, organism-based, Hepacivirus hominis. As to conditions: genotype 1b.
For assay [7], the system named is Hepatitis C virus. The experiment in a line: Resistance index, ratio of EC50 for Hepatitis C virus subtype 1b harboring protease R155K mutant to EC50 for wild type Hepatitis C virus subtype 1b. The format is functional, Hepacivirus hominis, genotype 1b.
The subject of assay [8] is Hepatitis C virus. The experiment in a line: Antiviral activity against Hepatitis C virus subtype 1b harboring protease R155K mutant by transient replicon assay. The format is functional, organism-based, Hepacivirus hominis. As to conditions: genotype 1b.
Assay [9] relates to Hepatitis C virus. As to the kind of experiment: Antiviral activity against Hepatitis C virus subtype 1b by stable replicon assay. Type of assay: functional, organism-based, Hepacivirus hominis. As to conditions: genotype 1b.
Assay [10] relates to Hepatitis C virus. As to the kind of experiment: Antiviral activity against Hepatitis C virus subtype 1b harboring protease A156T mutant by transient replicon assay. As to conditions: genotype 1b. The format is functional, organism-based, Hepacivirus hominis.
In assay [11] the test system is Hepatitis C virus. As to the kind of experiment: Resistance index, ratio of EC50 for Hepatitis C virus subtype 1b harboring protease D168V mutant to EC50 for wild type Hepatitis C virus subtype 1b. The format is functional, Hepacivirus hominis, genotype 1b.
The nature of assay [12]: Inhibition of HCV 1a protease 1a domain. Set-up: species or system Hepacivirus hominis.
In assay [13] the test system is Hepatitis C virus. As to the kind of experiment: Resistance index, ratio of EC50 for Hepatitis C virus subtype 1b harboring protease D168A mutant to EC50 for wild type Hepatitis C virus subtype 1b. Type of assay: functional, Hepacivirus hominis, genotype 1b.

For `COc1ccc2c(O[C@@H]3C[C@H]4C(=O)N[C@]5(C(=O)NS(=O)(=O)C6CC6)C[C@H]5/C=C\CCCCC[C@H](NC(=O)N(C)C(C)C)C(=O)N4C3)cc(-c3nc(C4CC4)cs3)nc2c1C`, the EC50 in assay [1] came to 0.05 nM; in assay [2], 0.04 nM; in assay [3] it was 17 nM; in assay [4] it was 0.3 nM; in [5], 5 nM; in assay [6], 37 nM. In addition, the 50% effective concentration (EC50) in assay [8] amounted to 5 nM; in [9], 0.4 nM; in assay [10], 2 nM. For the same molecule, the “Ratio EC50” value in [7], in assay [11] and in assay [13] was less than 1000 throughout. Further, the IC50 in assay [12] amounted to 0.8 nM.

As for `COc1ccc2c(O[C@@H]3C[C@H]4C(=O)N[C@@]5(C(=O)NS(=O)(=O)C6CC6)C[C@@H]5/C=C/CCCCN(C)C(=O)[C@@H]4C3)cc(-c3nc(C(C)C)cs3)nc2c1C`, the EC50 in [1] worked out at 0.3 nM; in assay [2] it was 1 nM; in assay [3], 149 nM; in assay [4], 2 nM; in [5] it was 344 nM; in assay [6], 140 nM. The figures for the EC50 in assay [8], in [9] and in [10] were 56 nM, 1 nM and 86 nM, respectively. Moreover, the “Ratio EC50” value in assay [7], in assay [11] and in assay [13] was 0.3 in each case. The molecule further registered an IC50 in [12] of 10 nM.

In the case of `COc1ccc2c(O[C@@H]3C[C@H]4C(=O)N[C@]5(C(=O)NS(=O)(=O)C6CC6)C[C@H]5/C=C\CCCCC[C@H](NC(=O)NCc5ccc6c(c5)B(O)OC6)C(=O)N4C3)cc(-c3nc(C(C)C)cs3)nc2c1C`, the EC50 in assay [1] amounted to 0.2 nM; in assay [2], 0.9 nM; in [3], 249 nM; in assay [4], 3.4 nM; in [5], 9 nM; in assay [6] it was 144 nM. Besides, the EC50 was 49 nM in assay [8], 0.8 nM in [9] and 7 nM in assay [10]. Besides, the half-inhibitory concentration (IC50) in assay [12] was determined as 2 nM.

For the molecule `COc1ccc2c(O[C@@H]3C[C@H]4C(=O)N[C@]5(C(=O)NS(=O)(=O)C6CC6)C[C@H]5/C=C\CCCCC[C@H](NC(=O)N(C(C)C)C(C)C)C(=O)N4C3)cc(-c3nc(C4CC4)cs3)nc2c1C`, the EC50 in [1] stood at 0.6 nM; in [2], 0.2 nM; in [3], 64 nM; in [4], 0.7 nM; in assay [5], 43 nM; in assay [6], 105 nM. Further, the EC50 in assay [8] was determined as 46 nM; in assay [9] it was 0.9 nM; in [10] it was 11 nM. Further, the “Ratio EC50” value in assay [7], in [11] and in assay [13] was less than 1000 each time. Further, inhibition in assay [12] was half-maximal at 2 nM (IC50).

Regarding `CCN(C(=O)N[C@H]1CCCCC/C=C\[C@@H]2C[C@@]2(C(=O)NS(=O)(=O)C2CC2)NC(=O)[C@@H]2C[C@@H](Oc3cc(-c4nc(C5CC5)cs4)nc4c(C)c(OC)ccc34)CN2C1=O)C(C)C`, the EC50 in assay [1] came out at 0.7 nM; in [2], 0.2 nM; in assay [3], 50 nM; in assay [4], 0.4 nM; in assay [5] it was 24 nM; in [6], 151 nM. Besides, the EC50 was 16 nM in [8], 0.4 nM in assay [9] and 8 nM in assay [10]. Besides, the “Ratio EC50” value in [7], in assay [11] and in assay [13] was less than 1000 throughout. Further, in assay [12], it took 1 nM to reach half-maximal inhibition (IC50).

For the molecule `COc1ccc2c(O[C@@H]3C[C@H]4C(=O)N[C@]5(C(=O)NS(=O)(=O)C6CC6)C[C@H]5/C=C\CCCCC[C@H](NC(=O)N5CCCC5)C(=O)N4C3)cc(-c3nc(C(C)C)cs3)nc2c1C`, the EC50 is 0.2 nM in assay [1]; 0.1 nM in [2]; 86 nM in assay [3]; 0.4 nM in [4]; 9 nM in [5]; 200 nM in assay [6]. The figures for the EC50 in assay [8], in assay [9] and in assay [10] were 15 nM, 0.4 nM and 2 nM, respectively. The molecule also registered an IC50 in [12] of 4 nM.

Turning to `CCN(C)C(=O)N[C@H]1CCCCC/C=C\[C@@H]2C[C@@]2(C(=O)NS(=O)(=O)C2CC2)NC(=O)[C@@H]2C[C@@H](Oc3cc(-c4nc(C(C)C)cs4)nc4c(C)c(OC)ccc34)CN2C1=O`, the half-maximal effective concentration (EC50) in [1] was 0.5 nM; in assay [2] it was 0.2 nM; in [3], 60 nM; in assay [4], 0.7 nM; in assay [5] it was 11 nM; in assay [6] it was 147 nM. Besides, the results for the EC50 in assay [8], in assay [9] and in [10] were 25 nM, 0.4 nM and 3 nM, respectively. Further, the “Ratio EC50” value in [7], in assay [11] and in assay [13] was less than 1000 each time. The same molecule returned an IC50 in assay [12] of 6 nM.

Take `CCC[C@H](NC(=O)[C@@H]1[C@H]2CCC[C@H]2CN1C(=O)[C@@H](NC(=O)[C@@H](NC(=O)c1cnccn1)C1CCCCC1)C(C)(C)C)C(=O)C(=O)NC1CC1` [TELAPREVIR]: the concentration for a half-maximal effect (EC50) in assay [1] stood at 883 nM; in [2] it was 34 nM; in [3], 638 nM; in assay [4], 540 nM; in assay [5] it was 1960 nM; in assay [6], 207 nM. Further, the EC50 in assay [8] is 1780 nM; in [9], 372 nM; in [10], 1140 nM. In addition, the “Ratio EC50” value in assay [7], in [11] and in [13] was 6 in each case. For the same molecule, the IC50 in [12] came out at 500 nM.

Turning to `COc1ccc2c(O[C@@H]3C[C@H]4C(=O)N[C@]5(C(=O)NS(=O)(=O)C6CC6)C[C@H]5/C=C\CCCCC[C@H](NC(=O)N5CCOCC5)C(=O)N4C3)cc(-c3nc(C(C)C)cs3)nc2c1C`, the EC50 in [1] was 0.03 nM; in assay [2], 0.01 nM; in assay [3], 17 nM; in assay [4], 0.3 nM; in assay [5], 2 nM; in assay [6], 33 nM. The EC50 in [8] came to 4 nM; in assay [9] it was 0.5 nM; in [10] it was 0.2 nM. This molecule also came in with an IC50 in assay [12] of 2 nM.

As to `COc1ccc2c(O[C@@H]3C[C@H]4C(=O)N[C@]5(C(=O)NS(=O)(=O)C6CC6)C[C@H]5/C=C\CCCCC[C@H](NC(=O)N(C)C(C)(C)C)C(=O)N4C3)cc(-c3nc(C4CC4)cs3)nc2c1C`, the 50% effective concentration (EC50) in assay [1] stood at 0.4 nM; in assay [2], 0.2 nM; in assay [3], 71 nM; in assay [4], 1 nM; in assay [5], 9 nM; in assay [6] it was 84 nM. In addition, the EC50 worked out at 28 nM in assay [8], 1 nM in assay [9] and 7 nM in assay [10]. In addition, the “Ratio EC50” value in assay [7], in assay [11] and in assay [13] was less than 1000 in each case.

`COc1ccc2c(O[C@@H]3C[C@H]4C(=O)N[C@]5(C(=O)NS(=O)(=O)C6CC6)C[C@H]5/C=C\CCCCC[C@H](NC(=O)N5CCC(CC(=O)O)CC5)C(=O)N4C3)cc(-c3nc(C(C)C)cs3)nc2c1C`: the EC50 in assay [1] worked out at 0.2 nM; in assay [2], 0.1 nM; in assay [3], 7 nM; in assay [4] it was 2.2 nM; in [5], 3 nM; in [6], 161 nM. Also, the half-maximal effective concentration (EC50) was found to be 21 nM in [8], 0.8 nM in [9] and 1 nM in [10]. The molecule further returned an IC50 in [12] of 0.9 nM.

In the case of `COc1ccc2c(O[C@@H]3C[C@H]4C(=O)N[C@]5(C(=O)NS(=O)(=O)C6CC6)C[C@H]5/C=C\CCCCC[C@H](NC(=O)N5CCS(=O)(=O)CC5)C(=O)N4C3)cc(-c3nc(C(C)C)cs3)nc2c1C`, the EC50 came to 0.3 nM in [1]; 0.4 nM in assay [2]; 372 nM in assay [3]; 2.3 nM in assay [4]; 38 nM in assay [5]; 1420 nM in assay [6]. Besides, the EC50 in assay [8] was 115 nM; in [9], 0.5 nM; in [10] it was 5 nM. Moreover, 2 nM corresponded to half-maximal inhibition in assay [12] (IC50).

For `COc1ccc2c(O[C@@H]3C[C@H]4C(=O)N[C@]5(C(=O)NS(=O)(=O)C6CC6)C[C@H]5/C=C\CCCCC[C@H](NC(=O)N5C[C@@H](C)O[C@@H](C)C5)C(=O)N4C3)cc(-c3nc(C(C)C)cs3)nc2c1C`, the EC50 in [1] worked out at 1 nM; in assay [2] it was 0.7 nM; in [3], 423 nM; in assay [4] it was 10.6 nM; in assay [5] it was 69 nM; in [6] it was 2090 nM. The results for the EC50 in assay [8], in [9] and in [10] were 233 nM, 1.2 nM and 23 nM, respectively. In addition, inhibition in assay [12] was half-maximal at 2 nM (IC50).

`COc1ccc2c(O[C@@H]3C[C@H]4C(=O)N[C@]5(C(=O)O)C[C@H]5/C=C\CCCCC[C@H](NC(=O)OC5CCCC5)C(=O)N4C3)cc(-c3csc(NC(C)C)n3)nc2c1` [CILUPREVIR]: the concentration for a half-maximal effect (EC50) was found to be 3 nM in [1]; 1 nM in assay [2]; 205 nM in [3]; 2.2 nM in assay [4]; 627 nM in [5]; 438 nM in assay [6]. The EC50 in [8] came out at 241 nM; in assay [9] it was 0.5 nM; in [10], 604 nM. Half-maximal inhibition in assay [12] (IC50) required 2 nM.
